From patent US20020026053A1, “Novel 3-(substituted) -2- indolinones compounds and use thereof as inhibitors of protein kinase activity” (priority 1997, published 2002)

Columns and labels:
EGFR = target: T1, EGFR (Homo sapiens, UniProt P00533); assay: Biochemical EGFR Assay; parameters: concentration or dose not given beside the values
T1 construct: endogenous in cells; host or cells: A431 cells (lysate, captured with SUMO1 anti-EGFR antibody)
How it was run: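 EGFR from A431 lysate was captured on anti-EGFR-coated wells and preincubated 30 min with compound (diluted 1:10 in TBS) at room temperature. After ATP/MnCl2 phosphorylation for 5 min, the reaction was stopped with EDTA. Phosphotyrosine was detected by ELISA (anti-phosphotyrosine, peroxidase conjugate, ABTS) at 410 nm.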

PDGF-R = PDGF-R Assay (cellular ELISA, U1242 cells); assay type: cell-based; parameters: concentration or dose not given beside the values
How it was run: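 U1242 cells seeded in 0.5% serum, serum-starved, then exposed to compound for 2 hr at 37°C before 5–10 min ligand stimulation and lysis in HNTG. Lysate captured on receptor-antibody-coated plates; phosphotyrosine detected with polyclonal anti-pTyr, goat anti-rabbit IgG and ABTS/H2O2, A410 (ref 630 nm), versus untreated cells.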

T1 sequence (P00533 25-1210): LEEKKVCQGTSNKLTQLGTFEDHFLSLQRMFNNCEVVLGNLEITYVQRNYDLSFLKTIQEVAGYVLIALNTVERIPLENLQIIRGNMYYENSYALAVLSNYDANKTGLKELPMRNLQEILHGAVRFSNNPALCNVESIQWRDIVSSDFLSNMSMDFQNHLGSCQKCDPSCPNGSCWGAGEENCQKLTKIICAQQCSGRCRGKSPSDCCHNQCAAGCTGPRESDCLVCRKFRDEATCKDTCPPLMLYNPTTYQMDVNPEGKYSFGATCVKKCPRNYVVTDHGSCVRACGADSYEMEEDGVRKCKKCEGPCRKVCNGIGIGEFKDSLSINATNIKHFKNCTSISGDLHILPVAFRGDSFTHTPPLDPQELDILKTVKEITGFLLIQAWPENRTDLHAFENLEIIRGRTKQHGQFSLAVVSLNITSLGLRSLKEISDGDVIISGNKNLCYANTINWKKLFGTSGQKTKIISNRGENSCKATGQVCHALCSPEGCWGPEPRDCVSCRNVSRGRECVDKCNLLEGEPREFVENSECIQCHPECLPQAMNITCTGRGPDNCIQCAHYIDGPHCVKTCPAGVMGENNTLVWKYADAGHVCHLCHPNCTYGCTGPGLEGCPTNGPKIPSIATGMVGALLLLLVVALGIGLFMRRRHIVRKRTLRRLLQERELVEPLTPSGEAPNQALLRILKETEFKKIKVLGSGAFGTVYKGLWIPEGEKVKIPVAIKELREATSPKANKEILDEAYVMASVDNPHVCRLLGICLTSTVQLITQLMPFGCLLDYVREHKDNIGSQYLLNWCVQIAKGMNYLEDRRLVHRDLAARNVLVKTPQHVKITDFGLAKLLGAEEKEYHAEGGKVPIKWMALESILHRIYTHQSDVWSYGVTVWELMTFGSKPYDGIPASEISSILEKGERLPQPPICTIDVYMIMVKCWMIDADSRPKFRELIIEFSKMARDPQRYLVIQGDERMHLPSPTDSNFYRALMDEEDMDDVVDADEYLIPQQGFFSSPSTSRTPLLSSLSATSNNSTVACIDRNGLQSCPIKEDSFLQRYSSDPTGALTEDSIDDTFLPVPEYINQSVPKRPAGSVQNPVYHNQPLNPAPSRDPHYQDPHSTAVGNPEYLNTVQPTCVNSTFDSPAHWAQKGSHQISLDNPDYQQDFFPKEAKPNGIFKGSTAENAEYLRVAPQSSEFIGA

| Compound | Biochem EGFR % Inhibition (P.167) (EGFR) | PDGF Kinase % Inhibition (P.119) (PDGF-R) |
| --- | --- | --- |
| CNS(=O)(=O)c1ccc2c(c1)C(=Cc1cc(F)cc(F)c1)C(=O)N2 [10735/D04] | 3.8% | 8.5% |
| CNS(=O)(=O)c1ccc2c(c1)C(=Cc1cccc(C(F)(F)F)c1)C(=O)N2 [10735/D05] | 23.0% | 20.5% |
| CNS(=O)(=O)c1ccc2c(c1)C(=Cc1cc(C(F)(F)F)cc(C(F)(F)F)c1)C(=O)N2 [10735/D06] | 8.0% | 14.7% |
| CNS(=O)(=O)c1ccc2c(c1)C(=Cc1ccccc1C#N)C(=O)N2 [10735/D07] | −17.6% | 3.6% |
| CNS(=O)(=O)c1ccc2c(c1)C(=Cc1c(F)cccc1F)C(=O)N2 [10735/D08] | −1.5% | −5.7% |
| CNS(=O)(=O)c1ccc2c(c1)C(=Cc1cccc3ccccc13)C(=O)N2 [10735/D09] | −0.3% | 6.7% |
| CNS(=O)(=O)c1ccc2c(c1)C(=Cc1ccc(Cl)cc1Cl)C(=O)N2 [10735/D10] | 46.5% | 3.3% |
| CNS(=O)(=O)c1ccc2c(c1)C(=Cc1ccc(-c3ccccc3)cc1)C(=O)N2 [10735/D11] | −16.5% | 0.5% |
| Cc1ccccc1C=C1C(=O)Nc2ccc(S(=O)(=O)Nc3ccc(C(F)(F)F)cc3)cc21 [10735/E02] | 16.7% | 14.7% |
| O=C1Nc2ccc(S(=O)(=O)Nc3ccc(C(F)(F)F)cc3)cc2C1=Cc1ccc(F)c(F)c1 [10735/E03] | 18.9% | 16.0% |
| O=C1Nc2ccc(S(=O)(=O)Nc3ccc(C(F)(F)F)cc3)cc2C1=Cc1cc(F)cc(F)c1 [10735/E04] | 14.3% | 91.6% |
| O=C1Nc2ccc(S(=O)(=O)Nc3ccc(C(F)(F)F)cc3)cc2C1=Cc1cccc(C(F)(F)F)c1 [10735/E05] | 30.6% | 47.8% |
| O=C1Nc2ccc(S(=O)(=O)Nc3ccc(C(F)(F)F)cc3)cc2C1=Cc1cc(C(F)(F)F)cc(C(F)(F)F)c1 [10735/E06] | 8.7% | 32.3% |
| N#Cc1ccccc1C=C1C(=O)Nc2ccc(S(=O)(=O)Nc3ccc(C(F)(F)F)cc3)cc21 [10735/E07] | 27.4% | 57.1% |
| O=C1Nc2ccc(S(=O)(=O)Nc3ccc(C(F)(F)F)cc3)cc2C1=Cc1c(F)cccc1F [10735/E08] | 10.2% | 25.4% |
| O=C1Nc2ccc(S(=O)(=O)Nc3ccc(C(F)(F)F)cc3)cc2C1=Cc1cccc2ccccc12 [10735/E09] | −3.9% | 37.1% |
| O=C1Nc2ccc(S(=O)(=O)Nc3ccc(C(F)(F)F)cc3)cc2C1=Cc1ccc(Cl)cc1Cl [10735/E10] | 19.1% | 27.1% |

| Compound | Biochem EGFR % Inhibition (P.167) (EGFR) | PDGF Kinase % Inhibition (P.119) (PDGF-R) |
| --- | --- | --- |
| O=C1Nc2ccc(S(=O)(=O)Nc3ccc(C(F)(F)F)cc3)cc2C1=Cc1ccc(-c2ccccc2)cc1 [10735/E11] | 10.1% | 11.9% |
| Cc1ccccc1C=C1C(=O)Nc2ccc(S(=O)(=O)N3CCOCC3)cc21 [10735/F02] | 19.8% | 6.0% |
| O=C1Nc2ccc(S(=O)(=O)N3CCOCC3)cc2C1=Cc1ccc(F)c(F)c1 [10735/F03] | 19.1% | 7.8% |
| O=C1Nc2ccc(S(=O)(=O)N3CCOCC3)cc2C1=Cc1cc(F)cc(F)c1 [10735/F04] | 10.6% | 40.5% |
| O=C1Nc2ccc(S(=O)(=O)N3CCOCC3)cc2C1=Cc1cccc(C(F)(F)F)c1 [10735/F05] | 5.5% | 37.1% |
| O=C1Nc2ccc(S(=O)(=O)N3CCOCC3)cc2C1=Cc1cc(C(F)(F)F)cc(C(F)(F)F)c1 [10735/F06] | 13.0% | 20.9% |
| N#Cc1ccccc1C=C1C(=O)Nc2ccc(S(=O)(=O)N3CCOCC3)cc21 [10735/F07] | 28.9% | 19.2% |
| O=C1Nc2ccc(S(=O)(=O)N3CCOCC3)cc2C1=Cc1c(F)cccc1F [10735/F08] | 9.4% | 13.3% |
| O=C1Nc2ccc(S(=O)(=O)N3CCOCC3)cc2C1=Cc1cccc2ccccc12 [10735/F09] | 0.0% | 19.8% |
| O=C1Nc2ccc(S(=O)(=O)N3CCOCC3)cc2C1=Cc1ccc(Cl)cc1Cl [10735/F10] | 15.7% | 13.3% |
| O=C1Nc2ccc(S(=O)(=O)N3CCOCC3)cc2C1=Cc1ccc(-c2ccccc2)cc1 [10735/F11] | 14.8% | 4.0% |
| Cc1ccccc1C=C1C(=O)Nc2ccc(CCCl)cc21 [10735/G02] | 23.7% | 7.1% |
| O=C1Nc2ccc(CCCl)cc2C1=Cc1ccc(F)c(F)c1 [10735/G03] | 30.3% | 6.4% |
| O=C1Nc2ccc(CCCl)cc2C1=Cc1cc(F)cc(F)c1 [10735/G04] | 22.8% | 11.6% |
| O=C1Nc2ccc(CCCl)cc2C1=Cc1cccc(C(F)(F)F)c1 [10735/G05] | 16.7% | 13.6% |
| O=C1Nc2ccc(CCCl)cc2C1=Cc1cc(C(F)(F)F)cc(C(F)(F)F)c1 [10735/G06] | 2.1% | 12.9% |
